In US20140336220A1, “COMPOSITION FOR PREVENTING OR TREATING OBESITY COMPRISING REBAMIPIDE” (The Catholic University of Korea Industry-Academic …, priority 2011, published 2014):

Assays:
adipocyte = assay: Real time PCR of adipogenic and brown fat genes in differentiated adipocyte; type: cell-based; settings: FIG. 9
Experimental: The inventors of the present disclosure differentiated adipocyte by the method of Example <7-1>. 3 days after differentiation, differentiation of adipocyte was maintained with replacement with a culture medium added with dexamethasone and insulin once per two days, and after 4 days, the cells were treated with trizol and RNA was separated therefrom and cDNA was synthesized. Then, by real time PCR, mRNA expression of c/EBP, adiponectin, Leptin aP2, GLTU, and Cytochrome C1 as proadipogenic transcription factors was observed.

Th17 cells = assay: Th17 cell inhibition, flow cytometry of blood and spleen cells; type: cell-based, mouse; settings: method: pre-treated at 1000 μM
Experimental: In order to stimulate CD4+ T cells 1×10 separated from the spleen under differentiation conditions of Th17 cells, the CD4+ T cells 1×10 were divided into a 24-well plate coated with 1 μg/Ml of an anti-CD3 antibody and treated with all of 1 μg/mL of an anti-CD28 antibody, 2 ng/ml of TGF-β, 20 ng/ml of IL-6, 10 ng/ml of anti-IL-4, and 10 ng/ml of anti-IFNr together suitable for stimulating Th17 cells. Then, the cells were stimulated for 1 hour. In this case, the cells were pre-treated with a rebamipide compound at a concentration of 1000 μM and cultured for 1 hour. The collected cells were allowed to react with a PerCP-anti-mouse CD4 antibody and a PE-anti-mouse phospho STATS antibody at 4° C. for 30 minutes in a dark field and washed with FACs buffer (0.002% sodium azide, 0.2% BSA/PBS). These cells were washed twice with Perm Wash buffer and re-floated on the FACs buffer and then analyzed with a flow cytometer.

[1] = test system: animal model with obesity induced arthritis; assay: Arthritis index in obesity induced arthritis (collagen induced arthritis) model; type: in vivo, C57BL/6 mouse; settings: 300 mg/kg oral, 10 times, three times per week, up to 61 days, FIG. 11
[2] = test system: animal models induced with obesity; assay: Serum cholesterol, LDL-cholesterol and triglyceride, dose comparison; type: in vivo, mouse; settings: FIG. 7A
Experimental: An experimental animal group was etherized and blood was collected from the heart. The collected blood was put into a centrifuge tube and centrifuged at 8000 rpm for 8 minutes at 20° C., so that the serum was separated.

[3] = test system: animal model with collagen induced arthritis (CIA); assay: Histological inspection of joints in collagen induced arthritis model; type: in vivo, mouse; settings: 300 mg/kg oral, after 61 days, H&E, Toluidine blue, safranin O, FIG. 12
Experimental: Each animal model with collagen induced arthritis (CIA) was orally administered with rebamipide with a dose of 300 mg/kg. After 61 days, euthanasia was administered to the experimental animals. Then, hind legs of the mouse were fixed with 10% formalin, and compounds of calcium were removed from the bone and paraffin was coated. A section of the joint (7 μm) was prepared and stained with hematoxylin and eosin. Further, in order to check damage of cartilage, a histological inspection was carried out by staining with Toluidine blue and safranin O.

[4] = test system: animal models induced with obesity; assay: Weight reduction effect in mice induced with obesity using a high fat food; type: in vivo, C57BL/6(H-2kb) mouse; settings: 300 mg/kg oral
Experimental: The inventors of the present disclosure prepared animal models induced with obesity in order to check whether rebamipide has an effect of treating obesity. As a test animal, a C57BL/6(H-2kb) mouse was used. In order to prepare animal models induced with obesity, a high fat food was fed to the animal models induced with obesity. After rebamipide was orally administered with a dose of 300 mg/kg to the animal models induced with obesity, weights of a rebamipide-treated group and a control group induced with obesity were measured.

[5] = test system: Th17 cells and Treg cells in spleen; assay: Th17 and Treg cells in spleen of obesity induced arthritis model, confocal microscope; type: in vivo, mouse; settings: FIG. 15
Experimental: Further, in order to investigate whether or not rebamipide affects Th17 and Treg, the inventors of the present disclosure embedded a frozen section (optimal cutting temperature compound: O.C.T. compound) using the spleen of a mouse and rapidly cooled the tissue in liquid nitrogen and attached the tissue on a slide to a thickness of 7 μm using a cryo microtome. Then, the section was fixed with acetone and coated with 10% normal goat serum and blocked from a non-specific reaction for 30 minutes. Thereafter, the section was reacted at 4° C. overnight with primary antibodies, that is, FITC-labeled anti-mFoxp3 Ab, PElabeled anti-mCD4 Ab, and APC-labeled anti-CD25 Ab, diluted with PBS (pH 7.5) at a ratio of 1:100 for Treg analysis and reacted with FITC-labeled anti-mCD4 Ab, and PE-labeled anti-mIL-17 for Th17 cell analysis. On the next day, the section was washed with a PBS solution, and a stained tissue was analyzed with a confocal microscope.

[6] = test system: animal group with obesity induced arthritis; assay: Type-II-collagen-specific IgG and IgG2a in serum by ELISA; type: in vivo, mouse; settings: serum 1:100, vs obesity induced arthritis group, FIG. 13
Experimental: Blood was collected from the heart of a mouse in each group and centrifuged at 8000 rpm for 8 minutes at 20° C., so that the mouse serum of each group was obtained from a supernatant of the blood. The serum was diluted at a ratio of 1:100, and type-II-collagen-specific IgG and IgG2a were measured by an ELISA method.

[7] = well treated with 20 μm of rebamipide

O=C(NC(Cc1cc(=O)[nH]c2ccccc12)C(=O)O)c1ccc(Cl)cc1 (stereo not drawn) [rebamipide, 2-(4-chlorobenzoylamino)-3-[2(1H)-quinolinon-4-yl]propionic acid]
mRNA expression of Cytochrome C1 (adipocyte; differentiated adipocyte): reduced depending on a concentration of rebamipide
mRNA expression of GLTU (adipocyte; differentiated adipocyte): reduced depending on a concentration of rebamipide
mRNA expression of Leptin (adipocyte; differentiated adipocyte): reduced depending on a concentration of rebamipide
mRNA expression of aP2 (adipocyte; differentiated adipocyte): reduced depending on a concentration of rebamipide
mRNA expression of adiponectin (adipocyte; differentiated adipocyte): reduced depending on a concentration of rebamipide
mRNA expression of c/EBP (adipocyte; differentiated adipocyte): reduced depending on a concentration of rebamipide
level of brown fat gene Cidea (adipocyte; [7]): increased
level of brown fat gene Cox7a1 (adipocyte; [7]): increased
level of brown fat gene Elov13 (adipocyte; [7]): increased
level of brown fat gene Fgf21 (adipocyte; [7]): increased
Th17 cells in blood (Th17 cells; FIG. 4A): significantly reduced
Th17 cells in spleen (Th17 cells; FIG. 4B): significantly reduced
arthritis index [1]: decreased
LDL-cholesterol in serum ([2]; 30 mg/kg and 100 mg/kg oral): statistically significantly reduced
cholesterol in serum ([2]; 30 mg/kg and 100 mg/kg oral): statistically significantly reduced
triglyceride in serum ([2]; 30 mg/kg and 100 mg/kg oral): statistically significantly reduced
reduction effect on serum cholesterol, LDL-cholesterol and triglyceride ([2]; 100 mg/kg oral, compared between doses): generally highest
damage of the joint and cartilage (histology) [3]: damage of the joint and cartilage was not severe and maintained similarly to a normal mouse
liver appearance with the naked eye ([4]; killed on the 51st day, FIG. 1B): bright red like a liver of a normal mouse
weight ([4]; obese mice on high fat food, vs control group, FIG. 1A): statistically significantly decreased
Treg cells in spleen [5]: increased
expression of Th17 in spleen [5]: reduced
type-II-collagen-specific IgG2a in serum [6]: significantly decreased
type-II-collagen-specific IgG in serum [6]: significantly decreased
